Assay results from patent US10227331B2 (priority 2015, dated 2019).
pIC50: −log10 of the molar value.

What was measured:
[1] = tested on: Escherichia coli expressing NDM-1 (CLB30005, CLB30016); type: cell-based; settings: with imipenem 1 μg/ml, 95% inhibition of bacterial growth; for Escherichia coli MITC95: NDM-1 (CLB30016)
How it was run: (§1)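 Restoration of imipenem susceptibility (1 μg/ml imipenem) was judged by absorbance after 22–24 h at 35° C. Test compound was added to bacteria suspended 1:100 in 1.1× CAMHB from overnight blood-agar cultures.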

[2] = tested on: Serratia marcescens expressing IMP-1 (CL5741); type: cell-based; settings: with imipenem 1 μg/ml, 95% inhibition of bacterial growth; for Serratia marcescens MITC95: IMP-1 (CL5741)
How it was run: as §1

[3] = tested on: Klebsiella pneumoniae expressing VIM-1 (IHMA599644); type: cell-based; settings: with imipenem 1 μg/ml, 95% inhibition of bacterial growth; for Klebsiella pneumoniae MITC95: VIM-1 (IHMA599644)
How it was run: as §1

[4] = tested on: P. aeruginosa expressing IMP-1, efflux− (MB9799); experiment: Efflux: concentration of MBL inhibitor which restores susceptibility to imipenem; type: cell-based, Pseudomonas aeruginosa; settings: imipenem at 2 μg/mL, in the presence of a class A, C, D serine β-lactamase inhibitor closely related to relebactam
Excerpt: (§2) The strain background is Pseudomonas aeruginosa PAO1.

NDM-1 = NDM-1 (Klebsiella pneumoniae, UniProt C7C422); experiment: biochemical; type: biochemical; settings: CCF2-FA substrate, 2 hours at 25° C; read-out: NDM-1 IC50
How it was run: (§3)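 Semi-log dose-response curves, fitted with a 4-parameter model, gave IC50s. The underlying signal was CCF2-FA fluorescence following 2 hours at 25° C with enzyme, substrate and inhibitor combined.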

IMP-1 = IMP-1 (Serratia marcescens, UniProt P52699); experiment: biochemical; type: biochemical; settings: CCF2-FA substrate, 2 hours at 25° C; read-out: IMP-1 IC50
How it was run: as §3

[5] = tested on: P. aeruginosa expressing IMP-1, efflux+ (MB9798); type: cell-based, Pseudomonas aeruginosa; settings: for P. aeruginosa expressing IMP-1, efflux+ (MB9798) MITC95: imipenem at 2 μg/mL, in the presence of a class A, C, D serine β-lactamase inhibitor closely related to relebactam; for Efflux ratio: ratio MITC95 PA_9798/MITC95 PA_9799
Excerpt: as §2

VIM-1 = VIM-1 (Pseudomonas aeruginosa (strain ATCC 15692 / DSM 22644 / CIP 104116 / JCM 14847 / LMG 12228 / 1C / PRS 101 / PAO1), UniProt A0A0F7KYQ8); experiment: biochemical; settings: CCF2-FA substrate, 2 hours at 25° C
How it was run: as §3

NDM-1, sequence (C7C422 whole entry, looked up, species assumed): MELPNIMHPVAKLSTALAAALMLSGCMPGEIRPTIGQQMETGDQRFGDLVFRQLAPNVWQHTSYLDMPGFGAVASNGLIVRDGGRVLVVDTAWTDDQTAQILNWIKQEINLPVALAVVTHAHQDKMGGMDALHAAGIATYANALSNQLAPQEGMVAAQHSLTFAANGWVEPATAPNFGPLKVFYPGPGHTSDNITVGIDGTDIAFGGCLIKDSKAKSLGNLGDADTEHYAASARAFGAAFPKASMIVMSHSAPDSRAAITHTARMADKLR
IMP-1, sequence (P52699 whole entry, looked up, species assumed): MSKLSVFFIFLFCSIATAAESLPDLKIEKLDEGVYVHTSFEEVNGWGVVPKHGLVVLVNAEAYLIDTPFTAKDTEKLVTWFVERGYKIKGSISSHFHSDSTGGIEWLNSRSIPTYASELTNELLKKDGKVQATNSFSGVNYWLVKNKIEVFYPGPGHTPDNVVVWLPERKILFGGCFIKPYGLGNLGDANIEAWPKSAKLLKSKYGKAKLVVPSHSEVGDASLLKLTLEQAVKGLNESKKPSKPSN

| SMILES | Escherichia coli expressing NDM-1 (CLB30016) MITC95 [1] [µM] | Serratia marcescens expressing IMP-1 (CL5741) MITC95 [2] [µM] | Klebsiella pneumoniae expressing VIM-1 (IHMA599644) MITC95 [3] [µM] | P. aeruginosa expressing IMP-1, efflux− (MB9799) MITC95 [4] [µM] | pIC50 (NDM-1) | pIC50 (IMP-1) | P. aeruginosa expressing IMP-1, efflux+ (MB9798) MITC95 [5] [µM] | Efflux ratio [5] | pIC50 (VIM-1) | Escherichia coli MITC95 [1] [µM] | Serratia marcescens MITC95 [2] [µM] | Klebsiella pneumoniae MITC95 [3] [µM] |
| --- | --- | --- | --- | --- | --- | --- | --- | --- | --- | --- | --- | --- |
| NS(=O)(=O)c1c([S+]([O-])C2CNC2)ccc(-c2ccc(C3CCNCC3)cc2)c1-c1nn[nH]n1 (stereo not drawn) [Example 5, 4-(Azetidin-3-ylsulfinyl)-4′-(piperidin-4-yl)-2-(2H-tetrazol-5-yl)-[1,1′-biphenyl]-3-sulfonamide] | 3.125 | 3.125 | 3.125 | 1.563 | 8.70 | 8.16 | 3.125 | 2.00 | 8.69 | – | – | – |
| NC[C@@H](O)CS(=O)(=O)c1ccc(-c2ccc(N)nc2)c(-c2nn[nH]n2)c1S(N)(=O)=O [Example 364, (R)-6-((3-amino-2-hydroxypropyl)sulfonyl)-3-(6-aminopyridin-3-yl)-2-(2H-tetrazol-5-yl) benzenesulfonamide] | – | – | – | 0.7813 | 9.10 | 9.31 | 0.7813 | 1.00 | 9.06 | 0.3418 | 0.9766 | 1.563 |
| NS(=O)(=O)c1c(SC2CNC2)ccc(-c2ccc(C3CCNCC3)cc2)c1-c1nn[nH]n1 [Example 4, 4-(Azetidin-3-ylthio)-4′-(piperidin-4-yl)-2-(2H-tetrazol-5-yl)-[1,1′-biphenyl]-3-sulfonamide] | 0.7813 | 1.563 | 3.125 | 0.3906 | 7.94 | 7.82 | 1.563 | 4.00 | 7.27 | – | – | – |
| NCCS(=O)(=O)c1ccc(-c2cccc3cnccc23)c(-c2nnn[nH]2)c1S(N)(=O)=O.O=C(O)C(F)(F)F [Example 171] | 1.563 | 3.125 | 6.25 | 1.563 | 9.51 | 8.99 | 12.5 | 8.00 | 9.57 | – | – | – |
| C[C@H](N)CS(=O)(=O)c1ccc(-c2cccc3[nH]cnc23)c(-c2nn[nH]n2)c1S(N)(=O)=O [Example 355] | – | – | – | 1.563 | 9.78 | 9.49 | 3.125 | 2.00 | 9.78 | 1.563 | 1.563 | 3.125 |
| CCn1c(N)nc2c(-c3ccc(S(=O)(=O)C4CNC4)c(S(N)(=O)=O)c3-c3nn[nH]n3)cccc21 [Example 283, 3-(2-amino-1-ethyl-1H-benzo[d]imidazol-4-yl)-6-(azetidin-3-ylsulfonyl)-2-(2H-tetrazol-5-yl)benzenesulfonamide] | – | – | – | 1.563 | 9.93 | 9.30 | 6.25 | 4.00 | 9.46 | 0.3906 | 1.563 | 1.563 |
| Nc1cc(-c2cc(-c3ccc(S(=O)(=O)C4CNC4)c(S(N)(=O)=O)c3-c3nnn[nH]3)ccn2)ccn1 [Example 311, 3-(2′-amino-[2,4′-bipyridin]-4-yl)-6-(azetidin-3-ylsulfonyl)-2-(1H-tetrazol-5-yl)benzenesulfonamide] | – | – | – | 1.563 | 9.04 | 8.63 | 50 | 31.99 | 9.50 | 3.125 | 1.563 | 3.125 |
| NS(=O)(=O)c1c(S(=O)(=O)C2CCNCC2)ccc(-c2ccc(C3CCNCC3)cc2)c1-c1nnn[nH]1 [Example 228, 4′-(piperidin-4-yl)-4-(piperidin-4-ylsulfonyl)-2-(1H-tetrazol-5-yl)-[1,1′-biphenyl]-3-sulfonamide] | 1.563 | 3.125 | 3.125 | 0.7813 | 9.01 | 9.28 | 0.7813 | 1.00 | 9.50 | – | – | – |
| NS(=O)(=O)c1c(S(=O)(=O)C2CNC2)ccc(-c2ccc3cnccc3c2)c1-c1nnn[nH]1.O=C(O)C(F)(F)F [Example 116, 3-((4-(isoquinolin-6-yl)-2-sulfamoyl-3-(1H-tetrazol-5-yl)phenyl)sulfonyl)azetidin-1-ium 2,2,2-trifluoroacetate] | 1.563 | 3.125 | 3.125 | 1.563 | 9.70 | 9.14 | 25 | 15.99 | 9.75 | – | – | – |
| NCCS(=O)(=O)c1ccc(-c2ccnc3ccccc23)c(-c2nnn[nH]2)c1S(N)(=O)=O.O=C(O)C(F)(F)F [Example 138, 2-((4-(quinolin-4-yl)-2-sulfamoyl-3-(1H-tetrazol-5-yl)phenyl)sulfonyl)ethanaminium 2,2,2-trifluoroacetate] | 1.563 | 3.125 | 6.25 | 1.563 | 9.10 | 8.89 | 6.25 | 4.00 | 9.39 | – | – | – |
| NCCS(=O)(=O)c1ccc(-c2cccn3ccnc23)c(-c2nnn[nH]2)c1S(N)(=O)=O [Example 64, 6-((2-Aminoethyl)sulfonyl)-3-(imidazo[1,2-a]pyridin-8-yl)-2-(1H-tetrazol-5-yl)benzenesulfonamide] | 1.563 | 1.563 | 3.125 | 1.563 | 8.97 | 9.45 | 1.563 | 1.00 | 9.47 | – | – | – |
